± gives the expanded uncertainty stated by the source.

Here are results for 1 molecule from the NIST ThermoML archive (doi:10.1016/j.fluid.2018.06.003).

A short description of data set [1]: refractive index (Na D-line) (dimensionless); xn = mol fraction of the nth substance listed. The following applies: 298.15 K; 101 kPa; Liquid; Standard Abbe refractometry; x1 = 0.3336.
Data set [2] in a line: xn = mol fraction of the nth substance listed. The following applies: 298.15 K; 101 kPa; Liquid; Vibrating tube method; x1 = 0.3336.

As to `C[N+](C)(C)C.[Cl-]` [tetramethylammonium chloride] + OCC(O)CO, the refractive index (as a rule, a measure of how strongly the sample bends light) in data set [1] was found to be 1.47183 ± 0.00044. Besides, the mass density (as a rule, the mass of a sample divided by its volume) in data set [2] was determined as 1145.22 ± 2.1 kg/m3.
